According to patent US8735377B1, “Methods of treating herpes zoster” (priority 2010, dated 2014):

Tests used:
[1] = Plasma concentration of COL-3 in humans; assay type: in vivo; conditions: dose of about 10 to about 20 mg/day
Protocol: An example of a COL is 6-demethyl-6-deoxy-4-de(dimethylamino)tetracycline (COL-3). COL-3 is administered in doses of up to about 200 mg/day, preferably about 150 mg/day, more preferably about 100 mg/day, or in amounts that result in plasma concentrations of up to about 50 μg/ml, about 40 μg/ml or about 30 μg/ml. For example, a dose of about 10 to about 20 mg/day of COL-3 produces plasma concentrations in humans of about 1.0 μg/ml.

herpes zoster (shingles) = assay: Case report: patient on sub-antibacterial doxycycline hyclate who presented with shingles; assay type: in vivo, human; conditions: one patient
Protocol: The below Example summarizes an incidence using 20 mg doxycycline hyclate tablets administered twice a day.
A person (hereinafter “the patient”) had been taking generic Periostat® (20 mg doxycycline hyclate b.i.d.) for over a six month period when they presented with shingles. […] By this time, the patient had blistering and vesicular lesions, and lesions consisting of deep scabs on their face (e.g., upper cheek), neck and chest. All lesions presented on patient's left side without crossing the midline.
The patient also reported being lethargic, weak and dizzy.
The medical doctor who examined the patient was very surprised to hear that the lesions were not painful. They said that the lesions were at the stage where they typically cause intense pain. The doctor predicted that, even if the lesions were not painful at the moment, they would become very painful shortly, particularly since antiviral therapy would be initiated after 72 hours of the appearance of the characteristic lesions. Accordingly, the doctor prescribed the narcotic pain reliever Percocet®.
The doctor also prescribed VALTREX®, an antiherpetic medication, in a dose of a 1 gram tablet, taken 3 times a day for 7 days. The doctor advised that VALTREX® should have been started within 2 or 3 days of the first appearance of a lesion in order to effectively minimize pain.
The patient began taking the VALTREX®, as prescribed. […]

## NC(=O)C1=C(O)C[C@@H]2C[C@@H]3Cc4cccc(O)c4C(=O)C3=C(O)[C@]2(O)C1=O [COL-3, 6-demethyl-6-deoxy-4-dedimethylaminotetracycline]
[1]
  plasma concentration in humans: about 1.0 μg/ml

## doxycycline hyclate
Herpes zoster (shingles); 20 mg b.i.d., no analgesic taken
  pain reported by the patient throughout the course of shingles: did not feel any pain whatsoever
Herpes zoster (shingles); 20 mg tablets twice a day, taken for over six months before onset, VALTREX started over 96 hours after first lesion, no analgesic
  inhibition of the pain typically associated with lesions of shingles: virtually complete inhibition
